{"source": "patent US20200009135A1", "about": "“THERAPEUTIC APPLICATIONS OF MALT1 INHIBITORS” (MEDIVIR AB, priority 2017, published 2020)", "key": {"[1]": {"test_system": "CD4+FoxP3+CD25+ cell induction", "assay": "Development of human T-regulatory cells from naive CD4 T cells (FoxP3+CD25+ induction)", "assay_type": "cell-based", "conditions": "3 donors, 0.4 μM, 0.4 μM and 4.0 μM", "description": "Naïve CD4 T cell sorting and stimulation for regulatory T cell development A flat-bottom 48 well plate was coated with 250 μl of purified functional grade anti-human CD3 at 2 μg/ml in PBS. The plate was sealed and incubated at 37° C. for one hour. Peripheral blood mononuclear cells (PBMC) were isolated from human leucocyte reduction system cones by differential density centrifugation using Ficoll-PLUS (GE Healthcare). Cells were washed three times in RPMI+1% HI-FCS+1% penicillin/streptomycin (P/S) (1% RPMI), then resuspended at a concentration of 200×10^6/ml of 1% RPMI. An aliquot of cells was set aside for single colour controls, and the sample was stained at a dilution of 1:20 with anti-human CD4, anti-human CD45RA, anti-human CD25, and anti-human CD127 (antibodies from BioLegend and eBioscience) for 20 minutes on ice. Following the incubation, the stained PBMC were washed and resuspended at 50×10^6/ml in PBS+1% HI-FCS. Cells were sorted on a BD […] high speed cell sorter for the phenotype CD4+CD45RA+CD127+CD25-. Following the sort, cells were resuspended at 4×10^6/ml in pre-warmed cRPMI containing […] human IL-2 (final concentration 100 U/ml). […]\nStaining Regulatory T Cell Cultures Induced regulatory T cell cultures were washed and counted. […]\nCD4+ naïve T cells cultured for 10 days were analysed for their expression of FoxP3 and CD25. […]"}, "[2]": {"test_system": "Treg suppression of CD4+CD25- effector T cell proliferation", "assay": "Treg suppressive activity (suppression of CD4+CD25- effector T cell proliferation)", "assay_type": "cell-based, human", "description": "PBMC were isolated from fresh blood by differential density centrifugation using Ficoll-PLUS (GE Healthcare). Cells were washed three times in RPMI+1% heat-inactivated foetal calf serum (HI-FCS)+1% penicillin/streptomycin (P/S) (1% RPMI), then resuspended in PBS+2% heat inactivated foetal calf serum (HI-FCS)+2.0 mM EDTA (isolation buffer). CD4+CD25- and CD4+CD25+ T cells were isolated, per the manufacturer's instructions (Miltenyi CD4+CD25+ Regulatory T cell Isolation Kit, human). Isolated CD4+CD25− T cells were then labeled with Cell Proliferation Dye eFluor® 450 per manufacturer's instructions (eBioscience). An aliquot of cells was stained with anti-CD3 and anti-CD4 (BioLegend and eBioscience) to assess cell purity and dye labeling by flow cytometry. Cultures were plated in cRPMI, with […] CD4+CD25− cells per well. […]\nFIG. 2. The proliferation of CD4+CD25− T cells, purified from a different donor and labelled with Cell Proliferation Dye eFluor® 450, was assessed following a 4 day activation with anti-CD3/CD28 beads. There was a robust proliferation of the cells, and they were readily distinguished from unlabeled cultured cells (generated in the 10 day culture period).\nThe number of proliferating CD4+CD25− “effector” T cells was determined at each ratio (1:4, 1:2, 1:1) of these cells to the cultured cells generated in the previous 10 day culture period (cultured “Treg”). […]"}}}
{"molecule": "CO[C@@H](C)c1c(NC(=O)Nc2cnc(-n3nccn3)c(Cl)c2)cnc2cc(Cl)nn12", "note": "[Example 2, (S)-1-(5-chloro-6-(2H-1,2,3-triazol-2-yl)pyridin-3-yl)-3-(2-chloro-7-(1-methoxyethyl)pyrazolo[1,5-a]pyrimidin-6-yl)urea]", "values": [{"measurement": "generation of a Treg phenotype and function", "setting": "[1]; highest degree of inhibition with 4.0 μM", "value": "inhibit"}, {"measurement": "CD4+FoxP3+CD25+ cell induction", "setting": "[1]; IL-2+TGFβ, 10 days, highest concentration most effective", "value": "robust inhibition"}, {"measurement": "Treg suppression of effector cell proliferation, donor 1", "setting": "[2]; donor 1, 0.4 μM, 0.4 μM and 4.0 μM", "value": "reduced"}, {"measurement": "Treg suppression of proliferation of responding effector T cells, donors 2 and 3", "setting": "[2]; donors 2 and 3, increasing concentrations", "value": "reduced by increasing concentrations"}]}
